Laboratory results taken from patent US20010034887A1, “Transformation of guar” (priority 1994, published 2001).
Where a name gives a salt, the structure may show the parent alone.

System: guar explants
Experiment: Agrobacterium-mediated transformation of guar cotyledon explants: selection, shoot harvest and GUS test
Format: cell-based, Cyamopsis tetragonoloba
Protocol: Cotyledons with about 2 mm of hypocotyl were excised from 12 day old seedlings. The cotyledons were then torn apart using a tweezers to create wound surfaces and placed in the Agrobacterium-suspension for 30 min.
Co-cultivation proceeded for 3 days at 25° C. and a 12 h/12 h day/night regime. After co-culture the explants were washed with 1/10 MS-medium, to which 100 mg/l carbenicillin, 100 mg/l cefotaxime and 1000 mg/l lysozyme had been added, 2-3 times for 45 min. while stirring at 100 rpm.
The explants were transferred to selection medium and incubated as above (25° C., 12 h day/12 h night).
After 4 weeks, shoots larger than 3 mm were harvested and transferred to shoot medium. After 10-14 days the shoots were tested for activity of the reporter gene β-glucuronidase (GUS), see below. GUS-positive shoots were transferred to fresh shoot medium while the GUS-negative shoots were discarded.
After the first harvest, explants (from which shoots had been harvested) were transferred to a second selection medium with a lower kanamycin concentration (50 mg/l) . After another 4 weeks shoots were harvested and GUS-tested. The positive shoots were transferred to fresh medium, while the negatives were discarded.
Tips of young leaves were excised and transferred to a multi-dish well containing 200 μl X-gluc solution. After incubation for 16 h at 35° C. the leaf tips were destained with 96% ethanol and the degree of blue stain was determined under a microscope.

[1] = kanamycin sulfate 125 mg/l in selection medium, 1600 explants, strain EHA 101
[2] = kanamycin sulfate 135 mg/l in selection medium, 1600 explants, strain EHA 101
[3] = kanamycin sulfate 145 mg/l in selection medium, 1600 explants, strain EHA 101
[4] = 0.1-2 mg/l PCIB during selection
[5] = thidiazuron 0.3 mg/l, 742 explants
[6] = thidiazuron 1.0 mg/l, 741 explants
[7] = thidiazuron 3.0 mg/l, 1522 explants
[8] = thidiazuron 4.5 mg/l, 797 explants

CC1(C)S[C@@H]2[C@H](NC(=O)C(C(=O)O)c3ccccc3)C(=O)N2[C@H]1C(=O)O (some centres unmarked) [Carbenicil., carbenicillin]
No. of GUS+ shoots (carbenicillin 800 mg/l, cefotaxime 0, sulbactam 0, 800 explants, EHA 101): 2

NC[C@H]1O[C@H](O[C@H]2[C@H](O)[C@@H](O[C@H]3O[C@H](CO)[C@@H](O)[C@H](N)[C@H]3O)[C@H](N)C[C@@H]2N)[C@H](O)[C@@H](O)[C@@H]1O [Kanamycin sulf., kanamycin sulfate]
regeneration frequencies (100 mg/l kanamycin or less): ~100% | No. of GUS+ shoots [1]: 3 | No. of regenerated shoots [1]: 21 | No. of GUS+ shoots [2]: 5 | No. of regenerated shoots [2]: 19 | No. of GUS+ shoots [3]: 8 | No. of regenerated shoots [3]: 15 | transgenic shoots found at the second harvest (second harvest, kanamycin concentration reduced): About 50% | optimal kanamycin sulfate concentration in the selection medium (selection medium): 145 mg/L

O.O.O.O.O.O.[Cl][Ni][Cl] [NiCl2, 6H2O]
No. of GUS+ shoots (NiCl2, 6H2O 1.0 mg/l with BAP 1.0 mg/l, 1200 explants, EHA 101): 4 | No. of GUS+ shoots (NiCl2, 6H2O 1.0 mg/l with BAP 5.0 mg/l, 1200 explants, EHA 101): 4 | higher transformation frequency (addition of 1 mg/l NiCl2, 6H2O): 2-4 times

CC(C)(Oc1ccc(Cl)cc1)C(=O)O [PCIB, 2-(p-chlorophenoxy)-2-methylpropionic acid]
amount of callus [4]: reduced the amount of callus significantly | regeneration and number of transgenic shoots [4]: enhanced regeneration and the number of transgenic shoots

CC1(C)[C@H](C(=O)O)N2C(=O)C[C@H]2S1(=O)=O [Sulbactam, sulbactam]
No. of GUS+ shoots (sulbactam 100 mg/l with carbenicillin 50 mg/l and cefotaxime 50 mg/l, 800 explants, EHA 101): 9 | No. of GUS+ shoots (sulbactam 100 mg/l with carbenicillin 100 mg/l and cefotaxime 100 mg/l, 800 explants, EHA 101): 5

O=C(Nc1ccccc1)Nc1cnns1 [Thidiazuron, thidiazuron]
subsequent cloning of the transgenic shoots: beneficial for the subsequent cloning of the transgenic shoots | increase of transformation frequencies (TDZ 0.3-3.0 mg/l vs no TDZ): 1.5-1.8 fold | optimum TDZ concentrations in the selection media (selection media): 0.3 to 3.0 mg/L | No. of GUS+ shoots [5]: 8 | Transform. freq. (%) [5]: 1.08% | No. of GUS+ shoots [6]: 9 | Transform. freq. (%) [6]: 1.21% | No. of GUS+ shoots [7]: 16 | Transform. freq. (%) [7]: 1.05% | No. of GUS+ shoots [8]: 5 | Transform. freq. (%) [8]: 0.63%

benzyladenine purine [BAP]
total number of regenerated shoots on 5 mg/l BAP compared with 1 mg/l (5 mg/l vs 1 mg/l BAP in selection medium): about twice as high | No. of GUS+ shoots (BAP 1.0 mg/l, NiCl2, 6H2O 0 mg/l, 1200 explants, EHA 101): 1 | No. of GUS+ shoots (BAP 5.0 mg/l, NiCl2, 6H2O 0 mg/l, 1200 explants, EHA 101): 2

silver thiosulfate [STS]
No. of GUS+ shoots (STS 2.5 μM, calculated per 1000 explants, EHA 101): 12 | No. of GUS+ shoots (STS 5.0 μM, calculated per 1000 explants, EHA 101): 8 | No. of GUS+ shoots (STS 10.0 μM, calculated per 1000 explants, EHA 101): 7 | shoot quality (presence of STS vs absence): significantly improved shoot quality
